Assay [1] has as its target T1, androgen receptor (AR) splicing variant AR-v7 (Homo sapiens, UniProt P10275).
T1 construct: The degradation activity of compounds on AR-v7 in 22RV1 cells; host or cells: 22RV1 cells
T1 sequence (P10275 1-644 isoform P10275-3): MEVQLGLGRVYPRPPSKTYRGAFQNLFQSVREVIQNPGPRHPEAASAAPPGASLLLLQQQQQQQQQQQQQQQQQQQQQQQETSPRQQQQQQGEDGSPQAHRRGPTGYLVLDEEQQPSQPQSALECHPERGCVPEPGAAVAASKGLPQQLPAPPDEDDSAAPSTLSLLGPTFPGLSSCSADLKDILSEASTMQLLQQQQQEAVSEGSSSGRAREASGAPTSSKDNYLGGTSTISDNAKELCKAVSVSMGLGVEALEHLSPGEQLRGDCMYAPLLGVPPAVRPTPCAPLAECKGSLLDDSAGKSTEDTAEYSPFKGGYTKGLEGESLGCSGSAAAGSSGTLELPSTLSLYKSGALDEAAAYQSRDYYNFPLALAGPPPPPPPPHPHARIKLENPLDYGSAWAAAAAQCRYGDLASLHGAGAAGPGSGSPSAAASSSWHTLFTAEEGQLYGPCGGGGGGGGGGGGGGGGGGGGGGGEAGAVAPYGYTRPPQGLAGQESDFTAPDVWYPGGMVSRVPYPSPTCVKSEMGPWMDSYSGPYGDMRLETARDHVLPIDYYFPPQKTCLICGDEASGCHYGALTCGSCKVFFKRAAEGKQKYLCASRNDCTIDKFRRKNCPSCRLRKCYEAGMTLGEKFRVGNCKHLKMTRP
The assay is described as follows: Degradation activity on androgen receptor splicing variant AR-v7 in 22RV1 cells (ELISA). Format: cell-based. The following applies: AR-v7 degradation in 22RV1 cells, 48 h, class symbols. For orientation: ELISA stands for enzyme-linked immunosorbent assay.

A further assay deals with 22RV1 cells. To be noted: Homo sapiens, 22Rv1, 144 h.
[2] abbreviates: read-out: 22RV1 IC50 (nM), 22RV1 cells, 6 days culture, CCK-8, OD 450 nm.

SMILES strings stand for the structures. Like-named read-outs stand apart in the source and are kept apart here.

For the compound `CC(C)(c1ccc(OCCCCCCCCOCCCCNc2ccc3c(c2)C(=O)N(C2CCC(=O)NC2=O)C3=O)cc1)c1ccc(OCc2ccnc(N3CC4(COC4)C3)n2)cc1` (stereo not drawn) [Example 61, 5-((4-((8-(4-(2-(4-((2-(2-oxa-6-azaspiro[3.3]heptan-6-yl)pyrimidin-4-yl)methoxy)phenyl)propan-2-yl)phenoxy)octyl)oxy)butyl)amino)-2-(2,6-dioxopiperidin-3-yl)isoindolin-1,3-dione], the DC50 – broadly, the midpoint of the concentration-degradation curve – in assay [1] lay within 1000 to 5000 nM. Moreover, the IC50 (in general, the midpoint of a concentration-inhibition curve) in the assay on 22RV1 cells (read-out: 22RV1 IC50 (nM)) stood at 4000 nM.
Turning to `CC(C)(c1ccc(OCCCCCCCOCCCOCCCNc2ccc3c(c2)C(=O)N(C2CCC(=O)NC2=O)C3=O)cc1)c1ccc(OCc2ccnc(N3CC4(COC4)C3)n2)cc1` (stereo not drawn) [Example 62, 5-((3-(3-((7-(4-(2-(4-((2-(2-oxa-6-azaspiro[3.3]heptan-6-yl)pyrimidin-4-yl)methoxy)phenyl)propan-2-yl)phenoxy)heptyl)oxy)propoxy)propyl)amino)-2-(2,6-dioxopiperidin-3-yl)isoindolin-1,3-dione], the DC50 in assay [1] lay within 1000 to 5000 nM. In addition, the IC50 with 22RV1 cells (setting [2]) was determined as 1500 nM.
For `CSc1nccc(COc2ccc(C(C)(C)c3ccc(OCCCNc4ccc5c(c4)C(=O)N(C4CCC(=O)NC4=O)C5=O)cc3)cc2)n1` (stereo not drawn) [Example 66] the same measures were 11 to 100 nM and 70 nM.
For `COc1nccc(COc2ccc(C(C)(C)c3ccc(OCCCNc4ccc5c(c4)C(=O)N(C4CCC(=O)NC4=O)C5=O)cc3)cc2)n1` (stereo not drawn) [Example 68, 2-(2,6-dioxopiperidin-3-yl)-5-((3-(4-(2-(4-((2-methoxypyrimidin-4-yl)methoxy)phenyl)propan-2-yl)phenoxy)propyl)amino)isoindolin-1,3-dione] the same measures were 11 to 100 nM and 30 nM.
For `CCOc1nccc(COc2ccc(C(C)(C)c3ccc(OCCCNc4ccc5c(c4)C(=O)N(C4CCC(=O)NC4=O)C5=O)cc3)cc2)n1` (stereo not drawn) [Example 69, 2-(2,6-dioxopiperidin-3-yl)-5-((3-(4-(2-(4-((2-ethoxypyrimidin-4-yl)methoxy)phenyl)propan-2-yl)phenoxy)propyl)amino)isoindolin-1,3-dione] the same measures were 11 to 100 nM and 50 nM.
In assay [1], `CC(C)(c1ccc(OCCCNc2ccc3c(c2)C(=O)N(C2CCC(=O)NC2=O)C3=O)cc1)c1ccc(OCc2ccnc(OC3CC3)n2)cc1` (stereo not drawn) [Example 70, 5-((3-(4-(2-(4-((2-cyclopropyloxypyrimidin-4-yl)methoxy)phenyl)propan-2-yl)phenoxy)propyl)amino)-2-(2,6-dioxopiperidin-3-yl)isoindolin-1,3-dione] showed a DC50 of 11 to 100 nM. Further, the IC50 in the assay with 22RV1 cells (setting [2]) was 30 nM.
In the same order, the values of `CC(C)(c1ccc(OCCCNc2ccc3c(c2)C(=O)N(C2CCC(=O)NC2=O)C3=O)cc1)c1ccc(OCc2ccnc(N3CCOCC3)n2)cc1` (stereo not drawn) [Example 71, 2-(2,6-dioxopiperidin-3-yl)-5-((3-(4-(2-(4-((2-morpholinepyrimidin-4-yl)methoxy)phenyl)propan-2-yl)phenoxy)propyl)amino)isoindolin-1,3-dione] are 11 to 100 nM and 35 nM.
For `CN1CCN(c2nccc(COc3ccc(C(C)(C)c4ccc(OCCCNc5ccc6c(c5)C(=O)N(C5CCC(=O)NC5=O)C6=O)cc4)cc3)n2)CC1` (stereo not drawn) [Example 72] the same measures were 11 to 100 nM and 37 nM.
Take `CC(C)(c1ccc(OCCCNc2ccc3c(c2)C(=O)N(C2CCC(=O)NC2=O)C3=O)cc1)c1ccc(OCc2ccnc(N3CC4(COC4)C3)n2)cc1` (stereo not drawn) [Example 73, 5-((3-(4-(2-(4-((2-(2-oxa-6-azaspiro[3.3]heptan-6-yl)pyrimidin-4-yl)methoxy)phenyl)propan-2-yl)phenoxy)propyl)amino)-2-(2,6-dioxopiperidin-3-yl)isoindolin-1,3-dione]: the DC50 in assay [1] is 11 to 100 nM. The IC50 in the assay with 22RV1 cells (setting [2]) came out at 25 nM.
For `CC(C)(c1ccc(OCCCNc2ccc3c(c2)C(=O)N(C2CCC(=O)NC2=O)C3=O)cc1)c1ccc(OCc2ccnc(N)n2)cc1` (stereo not drawn) [Example 74, 5-((3-(4-(2-(4-((2-aminopyrimidin-4-yl)methoxy)phenyl)propan-2-yl)phenoxy)propyl)amino)-2-(2,6-dioxopiperidin-3-yl)isoindolin-1,3-dione] the same measures were 11 to 100 nM and 31 nM.
For `CC(C)(c1ccc(OCCCNc2ccc3c(c2)C(=O)N(C2CCC(=O)NC2=O)C3=O)cc1)c1ccc(OCc2ccnc(N3CCC4(CC3)COC4)n2)cc1` (stereo not drawn) [Example 77, 5-((3-(4-(2-(4-((2-(2-oxa-7-azaspiro[3.5]nonan-7-yl)pyrimidin-4-yl)methoxy)phenyl)propan-2-yl)phenoxy)propyl)amino)-2-(2,6-dioxopiperidin-3-yl)isoindolin-1,3-dione] the same measures were 11 to 100 nM and 44 nM.
In the same order, the values of `CC(C)(c1ccc(OCc2ccnc(N3CC4(CCOC4)C3)n2)cc1)c1ccc(O[C@H]2C[C@@H](Nc3ccc4c(c3)C(=O)N(C3CCC(=O)NC3=O)C4=O)C2)cc1` (stereo partly drawn) [Example 88, 5-(((1s,3s)-3-(4-(2-(4-((2-(6-oxa-2-azaspiro[3.4]octan-2-yl)pyrimidin-4-yl)methoxy)phenyl)propan-2-yl)phenoxy)cyclobutyl)amino)-2-(2,6-dioxopiperidin-3-yl)isoindolin-1,3-dione] are < 10 nM and 15 nM.
Consider `CC(C)(c1ccc(OCc2ccnc(N3CC4(CCOCC4)C3)n2)cc1)c1ccc(O[C@H]2C[C@@H](Nc3ccc4c(c3)C(=O)N(C3CCC(=O)NC3=O)C4=O)C2)cc1` (stereo partly drawn) [Example 89, 5-(((1s,3s)-3-(4-(2-(4-((2-(7-oxa-2-azaspiro[3.5]nonan-2-yl)pyrimidin-4-yl)methoxy)phenyl)propan-2-yl)phenoxy)cyclobutyl)amino)-2-(2,6-dioxopiperidin-3-yl)isoindolin-1,3-dione], for which the DC50 in assay [1] was < 10 nM. Moreover, the IC50 in the assay on 22RV1 cells (setting [2]) worked out at 16 nM.
For `CC(C)(c1ccc(OCc2ccnc(N3CC4(COC4)C3)n2)cc1)c1ccc(O[C@H]2C[C@@H](Nc3ccc4c(c3)CN(C3CCC(=O)NC3=O)C4=O)C2)cc1` (stereo partly drawn) [Example 91, 3-(5-(((1s,3s)-3-(4-(2-(4-((2-(2-oxa-6-azaspiro[3.3]heptane-6-yl)pyrimidin-4-yl)methoxy)phenyl)propan-2-yl)phenoxy)cyclobutyl)amino)-1-oxoisoindolin-2-yl)piperidin-2,6-dione] the same measures were < 10 nM and 2 nM.
In the same order, the values of `Cc1nnc(-c2ncc(F)cc2Oc2ccc(C(C)(C)c3ccc(O[C@H]4C[C@H](Nc5ccc6c(c5)C(=O)N(C5CCC(=O)NC5=O)C6=O)C4)cc3)cc2)o1` (stereo partly drawn) [Example 95, 2-(2,6-dioxopiperidin-3-yl)-5-(((1r,3r)-3-(4-(2-(4-((5-fluoro-2-(5-methyl-1,3,4-oxadiazol-2-yl)pyridin-3-yl)oxy)phenyl)propan-2-yl)phenoxy)cyclobutyl)amino)isoindolin-1,3-dione] are < 10 nM and 6 nM.
Consider `CC(C)(c1ccc(OCc2ccnc(N3CC4(COC4)C3)n2)cc1)c1ccc(O[C@H]2C[C@H](Nc3ccc4c(c3)C(=O)N(C3CCC(=O)NC3=O)C4=O)C2)c(F)c1` (stereo partly drawn) [Example 364, 5-(((1r,3r)-3-(4-(2-(4-((2-(2-oxa-6-azaspiro[3.3]heptane-6-yl)pyrimidin-4-yl)methoxy)phenyl)isopropan-2-yl)-2-fluorophenoxy)cyclobutyl)amino)-2-(2,6-dioxopiperidin-3-yl)isoindolin-1,3-dione], for which, in the assay with 22RV1 cells (read-out: 22RV1 IC50 (nM)), the IC50 is 12 nM.
On to `CC(C)(c1ccc(OCc2cc(N3CC4(COC4)C3)ncn2)cc1)c1ccc(OC2CC(Nc3ccc4c(c3)C(=O)N(C3CCC(=O)NC3=O)C4=O)C2)cc1` (stereo not drawn) [Example 532], for which, in the assay on 22RV1 cells (setting [2]), the IC50 stood at 9 nM.
The same measure, in the same setting: the result for `CC(C)(c1ccc(OCc2cncc(N3CC4(COC4)C3)n2)cc1)c1ccc(O[C@H]2C[C@@H](Nc3ccc4c(c3)C(=O)N(C3CCC(=O)NC3=O)C4=O)C2)cc1` (stereo partly drawn) [Example 538] reads 12 nM.
On the same count and under the same terms, with `CC(C)(c1ccc(OCc2nccc(N3CC4(COC4)C3)n2)cc1)c1ccc(O[C@H]2C[C@H](Nc3ccc4c(c3)C(=O)N(C3CCC(=O)NC3=O)C4=O)C2)cc1` (stereo partly drawn) [Example 544] the figure was 12 nM.
In turn, `CC(C)(c1ccc(Oc2cnc(C#N)cn2)cc1)c1ccc(O[C@H]2C[C@H](Nc3ccc4c(c3)C(=O)N(C3CCC(=O)NC3=O)C4=O)C2)cc1` (stereo partly drawn) [Example 594, 5-(4-(2-(4-((1r,3r)-3-((2-(2,6-dioxopiperidin-3-yl)-1,3-dioxoisoindolin-5-yl)amino)cyclobutyloxy)phenyl)propan-2-yl)phenoxy)pyrazin-2-nitrile] showed a DC50 in assay [1] of 11 to 100 nM.
The same measure, in the same setting: the result for `Cc1nc(-c2ccc(Oc3ccc(C(C)(C)c4ccc(O[C@H]5C[C@@H](Nc6ccc7c(c6)C(=O)N(C6CCC(=O)NC6=O)C7=O)C5)cc4)cc3)cn2)no1` (stereo partly drawn) [Example 597, 2-(2,6-dioxopiperidin-3-yl)-5-(((1s,3s)-3-(4-(2-(4-((6-(5-methyl-1,2,4-oxadiazol-3-yl)pyridin-3-yl)oxy)phenyl)propan-2-yl)phenoxy)cyclobutyl)amino)isoindolin-1,3-dione] reads 11 to 100 nM.
